For series [1], the system named is isolated adult mouse ventricular myocytes (AMVMs). As to the kind of experiment: Uptake, hypertrophic growth and ANP mRNA in AMVMs treated ± PE for 24 h. Format: cell-based. The following applies: AMVMs ± PE 24 h, several peptide doses. The protocol: FIGS. 12A to 12E show TAT-SGK1-(Pep) Stops Growth of Myocytes.
(§1) TAT-SGK1-(Pep) inhibits myocyte growth and fibroblast activation: Next, a SGK1-(Pep) peptide was designed and synthesized with an N-terminal TAT sequence to facilitate its direct delivery to cultured cells, and potentially to mice. To test its effectiveness, isolated adult mouse ventricular myocytes (AMVMs) were treated with either vehicle or a FITC-labeled form of the peptide, then imaged to show uptake (FIG. 12A). […] Thus, the TAT-SGK1-(Pep) affects AMVM growth as anticipated. […] Finally, since TGFβ-stimulated SGK1 has been implicated in fibrosis (Artunc F and Lang F. Nephron Physiol. 2014 128:35-9), a major maladaptive aspect of pressure overload cardiac pathology, the effects of the TAT-SGK1-(Pep) on TGFβ-mediated induction of two markers of fibrosis, α-smooth muscle actin (α-SMA) and periostin, was examined in adult mouse ventricular fibroblasts (AMVF). […] These findings underscore the SGK1-specificity of the peptide, as well as the possibility that some of the adaptive effects of the peptide could include dampening inflammasome activation and decreasing fibrosis.

Series [2] has as its system endogenous SGK1. As to the kind of experiment: Rate of endogenous SGK1 degradation in AMVM. Format: cell-based, mouse.
Series [3] has as its system endogenous SGK1. As to the kind of experiment: Rate of endogenous SGK1 degradation in NRVM. Type of series: cell-based, rat. The following applies: degradation dependent on Hrd1.
Series [4] relates to adult mouse ventricular fibroblasts (AMVF). Kind of series: TGFβ-mediated induction of fibrosis and inflammasome marker mRNAs in AMVF (qRT-PCR). Format: cell-based. To be noted: 48 h. Here is the method:
FIGS. 13A to 13C show effects of TAT-SGK1-(Pep) in AMVFs: TAT-SGK1-(Pep) [P] added to AMVFs at the conc shown±TGFβ. 48 h later cultures analyzed for α-SMA (FIG. 13A), periostin (FIG. 13B), IL1b (FIG. 13C) mRNAs shown by qRT-PCR. n=3 cultures/treatment*$ p<0.05 different from all other values (ANOVA).
as §1
A general note: Real-time PCR tracks product formation cycle by cycle.

Series [5] deals with TAC-induced heart failure with reduced ejection fraction. Kind of series: Heart failure induced by transaortic constriction (TAC) in mice, echocardiography. Format: in vivo, mouse. From the text: Animals were randomly assigned to cohorts and a five-digit identifier number.
FIGS. 18A to 18D show LV mass (FIG. 18A), ejection fraction (FIG. 18B), cardiac stiffening (E/e′) (FIG. 18C), and A wave (FIG. 18D) in mice treated with control peptide, SGK1 peptide, or delayed treatment of SGK1 peptide. The mice were 4-weeks into a 6-week heart failure paradigm induced by transaortic constriction (TAC), a gold standard preclinical model of heart failure with reduced ejection fraction. […] Consistent pressure gradients to confirm standardized severity of the TAC procedure across cohorts is performed 1-week post-TAC via carotid flow Doppler ratios of the inominate to left common carotids.

Series [6] addresses T1, GILZ (Rattus norvegicus, UniProt Q9EQZ1).
T1 construct: FLAG IP efficiently pulled down the FLAG-SGK peptide (5, 6) as well as GILZ (7, 8); endogenous in cells; host or cells: NRVM (neonatal rat ventricular myocytes) infected with AdV-Con or AdV-FLAG-SGK1(122-157)
T1 sequence (Q9EQZ1 1-134): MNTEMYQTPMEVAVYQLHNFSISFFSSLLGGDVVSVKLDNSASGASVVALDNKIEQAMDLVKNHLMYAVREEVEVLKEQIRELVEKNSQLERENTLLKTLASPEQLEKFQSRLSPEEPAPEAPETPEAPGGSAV
Kind of series: FLAG immunoprecipitation of GILZ from NRVM infected with AdV-FLAG-SGK1(122-157). Type of series: binding. From the text: (§2) FIGS. 11A to 11C show SGK1(122-157) Interrupts SGK1/GILZ Interaction and Decreases Cardiac Myocyte Growth. FIG. 11A illustrates how a small SGK1-related peptide could disrupt SGK1-GILZ interaction, increase SGK1 degradation and reduce cardiac myocyte growth. […] NRVM were infected with AdV-Con or FLAG-SGK-(122-157). […] FLAG IP efficiently pulled down the FLAG-SGK peptide (5, 6) as well as GILZ (7, 8).
(§3) Thus, it is anticipated that AAV9-FLAG-SGK1-(Pep) can increase SGK1 degradation and, thus, blunt pressure overload-induced pathological cardiac hypertrophy and subsequent heart failure in mice, in vivo.

Series [7] deals with neonatal rat ventricular myocytes (NRVMs). Kind of series: PE-mediated ANP expression, growth and SGK1 degradation in NRVM with ectopic expression of the SGK1 peptide. Type of series: cell-based. The following applies: NRVM ± AdV-SGK1 peptide.
Source text: as §2
SGK1 and GILZ were shown herein to be increased in pathological hypertrophic human and mouse hearts. In mice, SGK1 degradation was slowed during pressure overload. Cardiac-specific deletion of SGK1 in mice decreased pressure overload-induced hypertrophy, whereas overexpression of SGK1 increased it. Removing the SGK1 ER-targeting sequence, or overexpressing GILZ decreased SGK1 degradation in neonatal rat ventricular myocytes (NRVMs) and increased growth; GILZ knockdown decreased growth. A 35 amino acid region in SGK1 that interacts with GILZ was identified; ectopic expression of this peptide increased SGK1 degradation and decreased NRVM growth.
as §3

Setting [8] is: chronic administration, 4 weeks into 6-week TAC paradigm.

Ends that are not written are not given here.

Turning to “GRKKRRQRRRPQVFYAVKVLQKKAILKKKEEKHIMSERNVLLKNVKHP [TAT-SGK1-(Pep)]”, in series [1], the “ANP mRNA” value is listed as “dose-dependent decrease” and the “cardiac myocyte remodeling (hypertrophic growth, width to length ratio)” value was “dose-dependent decrease”. Further, in series [2], the “endogenous SGK1 degradation” value was “accelerate endogenous SGK1 degradation”. Also, the “endogenous SGK1 degradation” value in series [3] was “accelerate endogenous SGK1 degradation”. Also, in series [4], the “TGFβ-mediated induction of periostin mRNA” value is listed as “effectively inhibited induction”; the “TGFβ-mediated induction of α-smooth muscle actin (α-SMA) mRNA” value is on record as “effectively inhibited induction”; the “mRNA for IL1β, marker of inflammasome activation” value was “inhibited”. For the same sequence, in series [5] (setting [8]), the “TAC-induced left ventricular hypertrophy (LV Mass)” value is “conferring protection”; the “diastolic dysfunction and cardiac stiffening (E/e′)” value is listed as “conferring protection”; the “early indicator of congestion (mitral atrial flow velocity, A wave)” value is on record as “conferring protection”; the “systolic dysfunction (ejection fraction)” value is recorded as “conferring protection”. Further, the toxic effects result in series [5] (setting [8]) is given as “no signs of untoward toxic effects”. Also, in series [5] (delayed administration starting at 2-weeks post-TAC), the “cardiac dysfunction and remodeling” value is “shows signs of cardioprotection and reversal of early cardiac dysfunction and remodeling”.
With “VFYAVKVLQKKAILKKKEEKHIMSERNVLLKNVKHP (not fully specified) [SGK1-(Pep), FLAG-tagged amino acids 122-157 of SGK1, ectopically expressed from an adenovirus (AdV)]”, the “binding to GILZ in IP experiments” value in series [6] was “could bind to GILZ”. Moreover, the “PE-mediated ANP expression (ANP mRNA)” value in series [7] is recorded as “blunted PE-mediated ANP expression”.
